Assays:
IBS patients with RLS [1] = assay: Follow-up lactulose breath test (LBT); assay type: in vivo, human; settings: neurology patient, two months after completing rifaximin therapy
Experimental: Patients consumed a low carbohydrate dinner and fasted overnight. Breath samples were collected every 15 minutes for 180 minutes and were analyzed by gas chromatography (using, for example, a QUINTRON DP PLUS MICROLYZER™ manufactured by QuinTron Instrument Company, Milwaukee, Wis.) for levels of hydrogen and methane. After a baseline recording, patients consumed 10 g of lactulose powder (for example, KRISTALOSE® produced by Bertek Pharmaceuticals Inc, Sugar Land, Tex.) dissolved in 240 mL of water. An abnormal LBT result was defined as an increase of greater than 20 ppm above baseline levels for hydrogen and/or methane gas 180 minutes or less after ingesting lactulose. An abnormal flatline LBT result was defined as a lack of a greater than 5-ppm increase above baseline levels for either hydrogen or methane during the 180-minute test. The role of SIBO in IBS and diseases other than restless legs syndrome, as well as the efficacy of breath tests in the diagnosis of SIBO is discussed in U.S. Pat. Nos. 6,861,053; 6,805,852; 7,056,686; and 7,048,906 to Lin and Pimentel, the disclosures of each of which are expressly incorporated by reference herein.

[2] = cited from earlier work
IBS patients with RLS [3] = assay: Open-label, observational pilot trial: RLS symptom improvement; assay type: in vivo, human
Excerpt: It was suspected that the patient might have postinfectious IBS and SIBO.
(§1) Patients visiting a community-based adult gastroenterology clinic over a 4-month period were eligible for the study if they presented with functional bowel symptoms and had abnormal lactulose breath test (LBT) results. Patients were excluded if they had celiac disease, Crohn's disease, pancreatic insufficiency, ulcerative colitis, scleroderma, diabetes, chronic renal failure, or surgeries predisposing them to SIBO. A diagnosis of RLS was confirmed using the Johns Hopkins validated interview process.
(§2) This was followed by long-term administration of the prokinetic medicine tegaserod (ZELNORM® produced by Novartis Pharmaceuticals Corporation, East Hanover, N.J.) 3 mg nightly plus short-term treatment with zinc 220 mg/d for one month for increased small intestinal permeability and a bifidobacteria-based probiotic (FLORA-Q® produced by Kenwood Therapeutics, Fairfield, N.J.) once daily for one month. Two patients were treated with rifaximin alone.
(§3) The percentage of RLS symptom improvement was assessed at the end of follow-up.
Thirteen IBS patients with confirmed RLS were included in the study. Eleven of these 13 patients were originally included in a SIBO study of IBS: 19 of 161 patients with an abnormal LBT result thought they had RLS. A diagnosis of RLS was confirmed in 11 of these 19 patients by the Johns Hopkins validated interview process. The remaining 2 of 13 patients with RLS (1 was the propositus and the other was referred from a neurology clinic) had been previously evaluated and treated for RLS by a neurologist.
(§4) The remaining two patients (the neurology clinic patient and propositus) received a modified treatment regimen.
Percentages of RLS and IBS symptom improvement as well as global IBS symptom improvement were assessed at a mean of 107 days (range, 22-450 days). […] The ten patients who responded included the three patients who had borderline or low serum levels of iron at baseline. […]

IBS patients with RLS [4] = assay: Open-label, observational pilot trial: GI (IBS) symptom improvement questionnaire; assay type: in vivo, human
Excerpt: as §1, §2
Each patient completed a questionnaire identifying the occurrence and rating the severity of six IBS symptoms experienced during the week before the LBT was conducted (baseline): abdominal pain, bloating, constipation, diarrhea, flatulence, and postprandial fullness. A history consistent with RLS and fibromyalgia was sought. Serum ferritin levels were measured at baseline.
as §3, §4
Percentages of RLS and IBS symptom improvement as well as global IBS symptom improvement were assessed at a mean of 107 days (range, 22-450 days). […] The ten patients who responded included the three patients who had borderline or low serum levels of iron at baseline. […] Eight of the ten patients with at least 80% improvement in RLS symptoms were followed long-term (mean, 139 days; range, 54-450 days), and 5 of the 8 patients reported complete (100%) resolution of RLS symptoms at the last follow-up visit.

[5] = day 11, after ten days of rifaximin therapy
[6] = end of follow-up (mean 107 days), rifaximin followed by tegaserod, zinc, probiotic in 11 of 13
[7] = last follow-up visit, 13 patients

For `CO[C@H]1/C=C/O[C@@]2(C)Oc3c(C)c(O)c4c(O)c(c5c(nc6cc(C)ccn65)c4c3C2=O)NC(=O)/C(C)=C\C=C\[C@H](C)[C@H](O)[C@@H](C)[C@@H](O)[C@@H](C)[C@H](OC(C)=O)[C@@H]1C` [rifaximin], the “LBT result after therapy” value (IBS patients with RLS [1]) is listed as “normal”, the “solubility in water” value [2] is listed as “practically insoluble in water” and the “patients reporting complete (100%) resolution of RLS symptoms at the last follow-up visit” value (IBS patients with RLS [3]; of 8 responders followed long-term (mean 139 days; range 54-450 days)) is listed as 5 of the 8. The “patients exhibiting at least 80% improvement in RLS symptoms at the last follow-up visit” value (IBS patients with RLS [3]; rifaximin 400 mg three times daily for ten days, in 11 of 13 followed by tegaserod, zinc, probiotic, assessed at mean 107 days (range 22-450)) was “Ten of 13”, the “response for both RLS and IBS symptoms” value (IBS patients with RLS [3]; single patient (propositus), empiric treatment with rifaximin) was “dramatic, rapid, and prolonged response” and the “GI symptom improvement: abdominal pain” value (IBS patients with RLS [4]; [5]) was 74%. The “GI symptom improvement: bloating” value (IBS patients with RLS [4]; [5]) was 70%, the “GI symptom improvement: constipation” value (IBS patients with RLS [4]; [5]) was 64% and the “GI symptom improvement: diarrhea” value (IBS patients with RLS [4]; [5]) was 73%. For the same compound, the “GI symptom improvement: flatulence” value (IBS patients with RLS [4]; [5]) was 47%, the “GI symptom improvement: postprandial fullness” value (IBS patients with RLS [4]; [5]) was 65% and the “GI symptom improvement: abdominal pain” value (IBS patients with RLS [4]; [6]) was 81%. For the same compound, the “GI symptom improvement: bloating” value (IBS patients with RLS [4]; [6]) was 76%, the “GI symptom improvement: constipation” value (IBS patients with RLS [4]; [6]) was 59% and the “GI symptom improvement: diarrhea” value (IBS patients with RLS [4]; [6]) was 68%. The “GI symptom improvement: flatulence” value (IBS patients with RLS [4]; [6]) was 55%, the “GI symptom improvement: postprandial fullness” value (IBS patients with RLS [4]; [6]) was 67% and the “global symptom improvement rated as greatly improved” value (IBS patients with RLS [4]; [7]) was 6 patients. The “global symptom improvement rated as mildly improved” value (IBS patients with RLS [4]; [7]) was “two” and the “global symptom improvement rated as moderately improved” value (IBS patients with RLS [4]; [7]) was “five”.
